How the values were obtained:
[1] = molecular target: Serine/threonine-protein kinase 26 (Homo sapiens, UniProt Q9P289); conditions: at 10 µM
[2] = molecular target: Proto-oncogene tyrosine-protein kinase Src (Homo sapiens, UniProt P12931); assay: Selectivity interaction (Kinase panel (DSF assay)) EUB0001558a SRC
[3] = molecular target: Cyclin-dependent kinase 2 (Homo sapiens, UniProt P24941); assay: Selectivity interaction (KinomeScan (DiscoverX)) EUB0000655a CDK2; conditions: at 10 µM
[4] = molecular target: T1, Serine/threonine-protein kinase haspin (Homo sapiens) (UniProt Q8TF76); assay: Selectivity interaction (ProQinase) EUB0000171b GSG2
T1 sequence (whole entry): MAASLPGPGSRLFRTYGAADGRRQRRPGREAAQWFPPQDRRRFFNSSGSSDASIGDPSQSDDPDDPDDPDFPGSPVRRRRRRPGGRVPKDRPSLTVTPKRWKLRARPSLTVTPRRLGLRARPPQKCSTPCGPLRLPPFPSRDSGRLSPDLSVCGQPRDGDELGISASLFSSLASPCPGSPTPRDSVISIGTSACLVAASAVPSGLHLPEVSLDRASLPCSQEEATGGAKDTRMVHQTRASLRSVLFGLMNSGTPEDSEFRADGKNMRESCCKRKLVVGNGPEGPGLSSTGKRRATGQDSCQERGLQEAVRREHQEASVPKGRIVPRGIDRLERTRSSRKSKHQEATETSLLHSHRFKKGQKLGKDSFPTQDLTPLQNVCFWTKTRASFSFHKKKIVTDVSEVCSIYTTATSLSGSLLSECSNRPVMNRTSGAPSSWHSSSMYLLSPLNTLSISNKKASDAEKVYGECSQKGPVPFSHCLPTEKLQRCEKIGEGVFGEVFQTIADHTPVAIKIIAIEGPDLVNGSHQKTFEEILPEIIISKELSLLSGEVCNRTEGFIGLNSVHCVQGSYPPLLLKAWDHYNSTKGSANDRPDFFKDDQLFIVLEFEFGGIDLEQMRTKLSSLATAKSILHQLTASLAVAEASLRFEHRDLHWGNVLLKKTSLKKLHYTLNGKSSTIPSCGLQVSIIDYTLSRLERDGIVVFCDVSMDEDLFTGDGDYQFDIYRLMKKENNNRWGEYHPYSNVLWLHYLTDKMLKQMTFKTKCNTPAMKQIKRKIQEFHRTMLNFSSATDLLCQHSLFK

[5] = molecular target: Proto-oncogene tyrosine-protein kinase receptor Ret (Homo sapiens, UniProt P07949); assay: Selectivity interaction (KinaseProfiler screening (Millipore)) EUB0000601a RET; conditions: at 3 µM
Proto-oncogene tyrosine-protein kinase receptor Ret, sequence (P07949 whole entry): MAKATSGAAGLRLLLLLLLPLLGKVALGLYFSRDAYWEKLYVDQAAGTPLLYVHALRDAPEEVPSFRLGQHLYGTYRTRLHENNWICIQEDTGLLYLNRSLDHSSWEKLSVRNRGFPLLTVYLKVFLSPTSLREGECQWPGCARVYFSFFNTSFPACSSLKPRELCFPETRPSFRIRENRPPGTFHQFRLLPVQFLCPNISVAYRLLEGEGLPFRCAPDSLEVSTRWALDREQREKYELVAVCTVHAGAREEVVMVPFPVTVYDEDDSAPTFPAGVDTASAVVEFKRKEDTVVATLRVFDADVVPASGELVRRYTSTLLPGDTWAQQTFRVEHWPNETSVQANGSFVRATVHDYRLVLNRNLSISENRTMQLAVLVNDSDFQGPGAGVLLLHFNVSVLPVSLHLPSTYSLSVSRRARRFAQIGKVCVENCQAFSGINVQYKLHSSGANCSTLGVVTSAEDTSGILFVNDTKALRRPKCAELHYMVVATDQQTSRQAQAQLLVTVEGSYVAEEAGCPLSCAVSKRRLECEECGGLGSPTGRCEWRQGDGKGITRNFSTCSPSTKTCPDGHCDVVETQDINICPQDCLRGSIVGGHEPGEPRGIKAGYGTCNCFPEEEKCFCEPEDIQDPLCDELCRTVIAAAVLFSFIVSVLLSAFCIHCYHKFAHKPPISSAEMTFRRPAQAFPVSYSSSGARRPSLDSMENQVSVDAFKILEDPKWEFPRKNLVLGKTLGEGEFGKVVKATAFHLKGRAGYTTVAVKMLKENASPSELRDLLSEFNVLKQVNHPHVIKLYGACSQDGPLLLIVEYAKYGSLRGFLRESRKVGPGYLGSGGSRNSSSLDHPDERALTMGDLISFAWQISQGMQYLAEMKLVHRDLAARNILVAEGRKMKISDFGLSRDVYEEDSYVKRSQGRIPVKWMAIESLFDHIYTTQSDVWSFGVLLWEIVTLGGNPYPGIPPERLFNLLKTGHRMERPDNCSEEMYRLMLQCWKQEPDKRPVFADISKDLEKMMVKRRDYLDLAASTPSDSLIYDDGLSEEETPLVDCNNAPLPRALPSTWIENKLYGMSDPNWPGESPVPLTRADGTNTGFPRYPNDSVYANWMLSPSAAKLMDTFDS

[6] = molecular target: Tyrosine-protein kinase JAK2 (Homo sapiens, UniProt O60674); conditions: at 10 µM
Tyrosine-protein kinase JAK2, sequence (O60674 whole entry): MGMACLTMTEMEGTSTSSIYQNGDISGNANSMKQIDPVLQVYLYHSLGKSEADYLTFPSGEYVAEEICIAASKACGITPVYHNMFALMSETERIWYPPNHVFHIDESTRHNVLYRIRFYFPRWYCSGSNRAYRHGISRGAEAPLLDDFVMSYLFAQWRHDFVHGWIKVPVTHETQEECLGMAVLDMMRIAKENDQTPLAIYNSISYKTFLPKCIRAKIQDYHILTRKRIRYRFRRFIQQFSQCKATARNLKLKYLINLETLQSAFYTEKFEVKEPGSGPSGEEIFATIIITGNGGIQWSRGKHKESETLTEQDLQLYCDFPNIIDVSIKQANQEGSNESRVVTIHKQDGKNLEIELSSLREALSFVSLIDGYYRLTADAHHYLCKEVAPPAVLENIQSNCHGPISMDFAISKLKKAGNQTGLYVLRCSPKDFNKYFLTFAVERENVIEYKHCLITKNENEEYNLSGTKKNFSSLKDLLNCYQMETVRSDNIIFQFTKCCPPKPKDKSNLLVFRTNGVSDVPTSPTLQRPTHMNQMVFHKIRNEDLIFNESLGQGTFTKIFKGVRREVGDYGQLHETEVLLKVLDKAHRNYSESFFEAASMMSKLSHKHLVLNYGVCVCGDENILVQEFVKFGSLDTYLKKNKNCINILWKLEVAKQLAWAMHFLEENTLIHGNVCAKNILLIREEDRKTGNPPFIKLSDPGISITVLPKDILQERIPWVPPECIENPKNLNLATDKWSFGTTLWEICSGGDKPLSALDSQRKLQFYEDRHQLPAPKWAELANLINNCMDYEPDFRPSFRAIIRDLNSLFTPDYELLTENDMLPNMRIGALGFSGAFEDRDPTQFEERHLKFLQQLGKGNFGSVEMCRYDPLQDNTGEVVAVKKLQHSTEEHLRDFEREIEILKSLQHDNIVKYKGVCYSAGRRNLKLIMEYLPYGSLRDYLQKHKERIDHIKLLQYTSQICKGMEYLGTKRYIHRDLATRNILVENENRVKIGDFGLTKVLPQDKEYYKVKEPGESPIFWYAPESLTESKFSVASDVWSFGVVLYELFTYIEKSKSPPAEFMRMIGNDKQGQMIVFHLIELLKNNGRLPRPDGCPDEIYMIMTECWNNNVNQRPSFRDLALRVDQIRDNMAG

[7] = molecular target: T2, Serine/threonine-protein kinase LATS2 (Homo sapiens) (UniProt Q9NRM7); assay: Selectivity interaction (ActivX KiNativ screen (kinase selectivity in THP-1 cell lysates)) EUB0000639a LATS2; format: subcellular; conditions: lysate
T2 sequence (whole entry): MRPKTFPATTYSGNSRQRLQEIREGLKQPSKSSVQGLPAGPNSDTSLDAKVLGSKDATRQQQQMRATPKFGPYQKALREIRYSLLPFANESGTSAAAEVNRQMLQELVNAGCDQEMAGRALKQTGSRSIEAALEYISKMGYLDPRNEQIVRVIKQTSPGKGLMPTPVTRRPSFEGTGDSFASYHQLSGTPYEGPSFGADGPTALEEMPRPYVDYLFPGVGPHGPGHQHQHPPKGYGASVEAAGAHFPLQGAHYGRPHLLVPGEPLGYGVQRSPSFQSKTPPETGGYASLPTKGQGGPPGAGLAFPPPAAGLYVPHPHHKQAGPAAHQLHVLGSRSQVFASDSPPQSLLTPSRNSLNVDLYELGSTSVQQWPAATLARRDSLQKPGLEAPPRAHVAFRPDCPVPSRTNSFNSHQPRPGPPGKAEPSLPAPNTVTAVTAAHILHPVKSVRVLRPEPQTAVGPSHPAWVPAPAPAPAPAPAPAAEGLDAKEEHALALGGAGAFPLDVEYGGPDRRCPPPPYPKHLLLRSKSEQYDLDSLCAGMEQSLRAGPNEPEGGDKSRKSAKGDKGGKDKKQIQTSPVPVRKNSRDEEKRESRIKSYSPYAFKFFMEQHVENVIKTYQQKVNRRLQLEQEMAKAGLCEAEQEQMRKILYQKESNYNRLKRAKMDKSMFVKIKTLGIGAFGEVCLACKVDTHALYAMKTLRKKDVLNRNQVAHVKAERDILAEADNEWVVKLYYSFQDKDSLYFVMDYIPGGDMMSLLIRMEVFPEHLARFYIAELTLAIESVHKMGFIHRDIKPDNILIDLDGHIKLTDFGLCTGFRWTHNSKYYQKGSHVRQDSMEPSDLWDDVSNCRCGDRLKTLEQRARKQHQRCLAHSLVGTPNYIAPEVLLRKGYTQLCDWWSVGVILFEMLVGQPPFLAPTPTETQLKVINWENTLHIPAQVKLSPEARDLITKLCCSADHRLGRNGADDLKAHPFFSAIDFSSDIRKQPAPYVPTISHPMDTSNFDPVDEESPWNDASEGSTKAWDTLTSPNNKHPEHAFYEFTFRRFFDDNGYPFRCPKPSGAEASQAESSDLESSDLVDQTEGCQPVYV

[8] = molecular target: Mitogen-activated protein kinase 14 (Homo sapiens, UniProt Q16539); assay: Selectivity interaction (Kinase panel (Invitrogen)) EUB0000639a MAPK14; conditions: at 200 nM
Mitogen-activated protein kinase 14, sequence (Q16539 whole entry): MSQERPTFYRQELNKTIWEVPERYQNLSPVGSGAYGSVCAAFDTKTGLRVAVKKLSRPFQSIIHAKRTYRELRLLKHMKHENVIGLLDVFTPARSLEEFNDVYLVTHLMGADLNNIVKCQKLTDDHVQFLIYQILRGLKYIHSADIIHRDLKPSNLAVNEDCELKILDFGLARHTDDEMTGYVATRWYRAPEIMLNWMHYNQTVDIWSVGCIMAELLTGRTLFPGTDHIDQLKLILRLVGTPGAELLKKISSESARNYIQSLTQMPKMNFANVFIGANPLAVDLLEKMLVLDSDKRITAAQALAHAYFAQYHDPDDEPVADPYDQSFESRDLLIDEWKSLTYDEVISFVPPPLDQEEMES

[9] = molecular target: Cyclin-dependent kinase 7 (Homo sapiens, UniProt P50613); assay: Selectivity interaction (KinomeScan (DiscoverX)) EUB0000607a CDK7; conditions: at 10 µM
Cyclin-dependent kinase 7, sequence (P50613 whole entry): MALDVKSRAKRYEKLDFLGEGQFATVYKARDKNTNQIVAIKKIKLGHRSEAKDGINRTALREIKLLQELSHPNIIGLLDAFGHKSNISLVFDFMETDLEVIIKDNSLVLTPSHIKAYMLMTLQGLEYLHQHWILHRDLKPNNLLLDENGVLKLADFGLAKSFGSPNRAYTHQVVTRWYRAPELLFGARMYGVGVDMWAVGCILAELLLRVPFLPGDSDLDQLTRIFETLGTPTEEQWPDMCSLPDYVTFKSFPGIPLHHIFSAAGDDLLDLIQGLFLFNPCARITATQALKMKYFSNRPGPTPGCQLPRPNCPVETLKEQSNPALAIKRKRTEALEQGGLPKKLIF

[10] = molecular target: T3, Serine/threonine-protein kinase 17A (Homo sapiens) (UniProt Q9UEE5); assay: Selectivity interaction (KinomeScan (DiscoverX)) EUB0001619a STK17A; conditions: at 1 µM
T3 sequence (whole entry): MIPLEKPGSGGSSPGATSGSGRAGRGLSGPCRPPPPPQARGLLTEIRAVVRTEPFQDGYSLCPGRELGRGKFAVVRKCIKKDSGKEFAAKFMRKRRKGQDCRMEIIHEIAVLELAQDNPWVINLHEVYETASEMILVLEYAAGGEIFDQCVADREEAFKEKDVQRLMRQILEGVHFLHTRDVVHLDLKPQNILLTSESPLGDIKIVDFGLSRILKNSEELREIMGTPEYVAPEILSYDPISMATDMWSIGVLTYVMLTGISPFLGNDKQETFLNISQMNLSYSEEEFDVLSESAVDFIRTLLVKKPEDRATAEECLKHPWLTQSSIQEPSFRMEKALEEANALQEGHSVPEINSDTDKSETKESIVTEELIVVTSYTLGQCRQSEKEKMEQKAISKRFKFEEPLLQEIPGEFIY

Serine/threonine-protein kinase 26, sequence (Q9P289 2-416 limits assumed): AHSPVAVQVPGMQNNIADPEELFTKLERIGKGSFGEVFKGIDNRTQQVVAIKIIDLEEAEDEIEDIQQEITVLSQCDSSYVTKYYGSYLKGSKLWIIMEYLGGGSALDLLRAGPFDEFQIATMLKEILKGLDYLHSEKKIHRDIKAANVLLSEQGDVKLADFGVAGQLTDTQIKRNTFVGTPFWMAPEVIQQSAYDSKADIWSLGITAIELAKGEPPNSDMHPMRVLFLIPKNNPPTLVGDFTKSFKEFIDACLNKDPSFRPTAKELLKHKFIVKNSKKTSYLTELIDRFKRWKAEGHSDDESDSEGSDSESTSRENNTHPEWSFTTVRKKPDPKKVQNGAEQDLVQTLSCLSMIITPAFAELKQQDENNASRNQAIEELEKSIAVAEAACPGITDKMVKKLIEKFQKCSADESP
Proto-oncogene tyrosine-protein kinase Src, sequence (P12931 2-536 limits assumed): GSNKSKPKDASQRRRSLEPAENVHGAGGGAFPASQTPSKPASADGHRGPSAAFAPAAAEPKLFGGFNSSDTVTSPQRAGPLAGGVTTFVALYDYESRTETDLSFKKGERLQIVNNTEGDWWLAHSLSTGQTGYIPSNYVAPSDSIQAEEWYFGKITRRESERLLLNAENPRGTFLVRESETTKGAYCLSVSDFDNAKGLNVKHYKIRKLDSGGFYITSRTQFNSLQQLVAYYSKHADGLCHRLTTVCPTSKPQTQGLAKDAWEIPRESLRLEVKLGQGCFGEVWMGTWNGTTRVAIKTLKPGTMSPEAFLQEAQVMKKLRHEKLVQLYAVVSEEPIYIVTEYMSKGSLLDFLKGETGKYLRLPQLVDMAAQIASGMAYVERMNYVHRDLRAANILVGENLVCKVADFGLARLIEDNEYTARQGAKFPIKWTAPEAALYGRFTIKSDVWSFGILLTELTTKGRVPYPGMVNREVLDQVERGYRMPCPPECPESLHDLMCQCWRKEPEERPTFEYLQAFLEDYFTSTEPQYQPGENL

Compound `CCN(CC)CCCCNc1ncc2cc(-c3cc(OC)cc(OC)c3)c(NC(=O)NC(C)(C)C)nc2n1` has a % of control [1] of 100%.
With `CC(C)(O)[C@H](F)CN1Cc2cc(NC(=O)c3cnn4cccnc34)c(N3CCOCC3)cc2C1=O` the dTM [2] was 2 K.
`CN(C)CCOc1ccc(-c2nc(-c3ccncc3)c(-c3ccc4c(c3)CC/C4=N\O)[nH]2)cc1` was tested, and the % of control [3] was 100%.
`C=CC(=O)Nc1cccc(C(=O)Nc2ccc(Nc3cc(-c4[nH]c(SC)nc4C)ccn3)cc2)c1` was tested, and the % of control ([4]; at 1 µM) was 84% and the % of control ([4]; at 5 µM) was 56%.
`CCc1cc(Nc2nccc(-c3c(-c4ccc(OC)c(C(=O)Nc5c(F)cccc5F)c4)nc4ccccn34)n2)c(OC)cc1N1CCC(N2CCN(S(C)(=O)=O)CC2)CC1` showed a % of inhibition [5] of 52%.
With `Cc1cc([C@@H](C)Nc2ccccc2C(=O)O)c2nc(N3CCOCC3)cc(=O)n2c1` [AZD-6482] the % of control [6] was 62%.
Compound `CC[C@@H]1[C@H](F)C(=O)N[C@@H]1COc1nccc2cc(C(N)=O)c(OC)cc12` [ZIMLOVISERTIB] has a % of inhibition ([7]; at 0.01 µM) of -10.4%, a % of inhibition ([7]; at 0.04 µM) of -16% and a % of inhibition ([7]; at 0.2 µM) of 2.1%. It also gave a % of inhibition ([7]; at 1 µM) of 32.5%, a % of inhibition ([7]; at 5 µM) of 85% and a % of inhibition [8] of 18.3%.
`CNC(=O)Nc1ccc(-c2nc(N3CC4CCC(C3)O4)c3cnn(C4CCC5(CC4)OCCO5)c3n2)cc1` gave a % of control [9] of 88%.
`N#Cc1cccc(-c2c[nH]c3ncnc(N4CCOCC4)c23)c1` showed a % of control [10] of 88%.
